# Where “and” joins values, the source holds several entries; their conditions need not be identical. Identical values can stand only once. Counter-ions that a name gives are not always drawn. Like-named read-outs stand apart in the source and are kept apart here.
# Tests used:
# [1] = test system: HCT116 (p53+) (Colorectal Carcinoma); assay: cells; conditions: Homo sapiens, HCT-116, 72 h, read-out: cell viability (survival rate), HCT116
# [2] = test system: HCT116 (p53+) (Colorectal Carcinoma)
# [3] = test system: 786-O (Renal adenocarcinoma); assay: Cell viability analysis, renal cancer 786-O; type: cell-based, human; conditions: Homo sapiens, 786-0, 72 h, read-out: The results of antibiotic drug inhibiting cancer cell lines (cell viability analysis), 786-O
Structure (SMILES),viability at 10 µM [1] [%],viability [2],"viability at 10 µM ([3]; 786-O, repeated experiment) [%]",viability at 10 µM [3] [%]
CCCCCCCCCCCCCCCC[N+](C)(C)CCN(Cc1ccc(OC)cc1)c1ncccn1 [Thonzonium Bromide],32.9,18.8%,16.8,–
CC(C)/N=c1\cc2n(-c3ccc(Cl)cc3)c3ccccc3nc-2cc1Nc1ccc(Cl)cc1 [Clofazimine],–,–,82.5,–
CC[C@@H]([C@H](C)O)n1ncn(-c2ccc(N3CCN(c4ccc(OC[C@@H]5CO[C@@](Cn6cncn6)(c6ccc(F)cc6F)C5)cc4)CC3)cc2)c1=O [Posaconazole],–,51.6%,18.1,–
CCc1cc2c(cc1CC)CC(NC[C@H](O)c1ccc(O)c3[nH]c(=O)ccc13)C2 [Indacaterol Maleate],–,91.9%,82.6,–
"CC(C)(C)C(=O)OCOP(=O)(COCCn1cnc2c(N)ncnc21)OCOC(=O)C(C)(C)C [Adefovir Dipivoxil (Preveon, Hepsera), Adefovir Dipivoxil]",–,55.4%,–,25.9
"Cc1ncc([N+](=O)[O-])n1CCO [Metronidazole (Flagyl), Metronidazole]",–,98.9%,–,92
CC(C)(C)CC(C)(C)c1ccc(O)c(Cc2ccc(Cl)cc2Cl)c1 [Clofoctol],61,76.6%,105,–
Clc1ccc(C(Cn2ccnc2)OCc2ccsc2Cl)c(Cl)c1 (centres unmarked) [Tioconazole],–,103%,–,75.6
"COc1c(C)c2c(c(O)c1C/C=C(\C)CCC(=O)O)C(=O)OC2 [Mycophenolic (Mycophenolate), Mycophenolic]",–,43.1%,24.7,–
CN(C)[C@@H]1C(O)=C(C(N)=O)C(=O)[C@@]2(O)C(O)=C3C(=O)c4c(O)ccc(Cl)c4[C@@](C)(O)[C@H]3C[C@@H]12 [Chlortetracycline HCl],–,91.5%,–,91.4
Cc1ccc2c(Cl)cc(Cl)c(O)c2n1 [Chlorquinaldol],–,38.5%,41.8,–
COc1cc(NC(C)CCCN)c2ncccc2c1 (centres unmarked) [Primaquine Diphosphate],69.5,60.9%,–,81.5
Clc1ccc(COC(Cn2ccnc2)c2ccc(Cl)cc2Cl)c(Cl)c1 (centres unmarked) [Miconazole nitrate],–,122%,–,75.2
"NC(=O)N/N=C/c1ccc([N+](=O)[O-])o1 [Nitrofurazone (Nitrofural), Nitrofurazone]",–,110%,90,–
CN(C)[C@@H]1C(O)=C(C(N)=O)C(=O)[C@@]2(O)C(O)=C3C(=O)c4c(O)cccc4[C@@](C)(O)[C@H]3C[C@@H]12 [Tetracycline HCl],–,115% and 114%,–,99.9
CN(C)CCC=C1c2ccccc2CCc2ccccc21 [Amitriptyline HCl],–,–,85.5,–
"CC(NC(C)(C)C)C(=O)c1cccc(Cl)c1 (centres unmarked) [Amfebutamone (Bupropion), Amfebutamone]",–,78.3%,–,103

# Source: patent publication US10105357B2, “Indication of antibiotic drugs for preparation of cancer inhibition pharmaceutical composition” (LAUNX BIOMEDICAL CO., LTD., priority 2014, dated 2018)
